Data taken from ChEMBL document CHEMBL6153136, “Cyclic Peptide Natural Product Inspired Inhibitors of the Free-Living Amoeba Balamuthia mandrillaris” (J Nat Prod, 2025).
Values after ≈ are worked out from the molar mass of the structure shown. Square brackets hold non-standard residues; d marks the D form. Peptide text beside a SMILES is read from it. dOrn = NCCC[C@@H](N)C(=O)O; Orn = NCCC[C@H](N)C(=O)O

Legend:
[1] = system: Balamuthia mandrillaris; assay: Anti-amoebic activity against Balamuthia mandrillaris CDC V093 (ATCC 50209) assessed as reduction in amoebae viability measured after 72 hrs by luminescent based CellTiter-Glo assay; type: functional, organism-based
[2] = system: A549; assay: Cytotoxicity against human A549 cells assessed as reduction in cell viability incubated for 72 hrs by CellTiter-Glo reagent based assay; type: functional; conditions: A549, 72 h
[3] = Hemolytic activity in human red blood cells assessed as hemolysis at 100 uM incubated for 1 hr by absorbance based assay relative to control; type: toxicity, cell-based, Erythrocyte; conditions: read-out: Activity
[4] = system: Acanthamoeba castellanii; assay: Anti-amoebic activity against Acanthamoeba castellanii assessed as reduction in amoebae viability measured for 72 hrs by luminescent based CellTiter-Glo assay; type: functional, organism-based
[5] = system: Naegleria fowleri; assay: Anti-amoebic activity against Naegleria fowleri assessed as reduction in amoebae viability measured for 72 hrs by luminescent based CellTiter-Glo assay; type: functional, organism-based
[6] = system: Lactococcus lactis; assay: Antibacterial activity against Lactococcus lactis measured after 24 hrs; type: functional, organism-based
[7] = system: Balamuthia mandrillaris; assay: Anti-amoebic activity against Balamuthia mandrillaris assessed as reduction in amoebae viability measured after 72 hrs by luminescent based CellTiter-Glo assay; type: functional, organism-based
[8] = Selectivity index, ratio of IC50 for cytotoxicity against human A549 cells to IC50 for anti-amoebic activity against Balamuthia mandrillaris CDC V093 (ATCC 50209) assessed as reduction in amoebae viability; type: toxicity, cell-based; conditions: read-out: Ratio IC50

Structure (SMILES)	IC50 [1] [µM]	hemolysis at 1 h, 100 µM [3] [%]	other results
CC(C)[C@@H]1NC(=O)[C@@H](CCCCN)NC(=O)[C@H]([C@@H](C)O)NC(=O)[C@@H](CCCN)NC(=O)[C@H](Cc2ccccc2)NC(=O)[C@@H](Cc2ccccc2)NC1=O	3.8	< 10	IC50 [2]: > 100 µM
CC(C)[C@@H]1NC(=O)[C@@H](CCCNC(=N)N)NC(=O)[C@H]([C@@H](C)O)NC(=O)[C@@H](CCCN)NC(=O)[C@H](C)NC(=O)[C@@H](Cc2ccccc2)NC1=O	> 20		
CC(C)[C@@H]1NC(=O)[C@@H](C)NC(=O)[C@H]([C@@H](C)O)NC(=O)[C@@H](CCCN)NC(=O)[C@H](Cc2ccccc2)NC(=O)[C@@H](Cc2ccccc2)NC1=O	> 20		
C[C@@H]1NC(=O)[C@@H](CCCNC(=N)N)NC(=O)[C@H]([C@@H](C)O)NC(=O)[C@@H](CCCN)NC(=O)[C@H](Cc2ccccc2)NC(=O)[C@@H](Cc2ccccc2)NC1=O	> 20		
CC(C)[C@@H]1NC(=O)[C@@H](CCCNC(=N)N)NC(=O)[C@H](C)NC(=O)[C@@H](CCCN)NC(=O)[C@H](Cc2ccccc2)NC(=O)[C@@H](Cc2ccccc2)NC1=O (cyclo(A[dR]V[dF]F[dOrn]))	8.5	< 10	IC50 [2]: > 100 µM
CC(C)[C@H](N)C(=O)N[C@H](Cc1ccccc1)C(=O)N[C@@H](Cc1ccccc1)C(=O)N[C@H](CCCN)C(=O)N[C@H](C(=O)N[C@H](CCCNC(=N)N)C(=O)O)[C@@H](C)O (H-V[dF]F[dOrn]T[dR]-OH)	> 20	< 10	
NCCC[C@@H]1NC(=O)[C@@H](CCCN)NC(=O)[C@H](Cc2ccccc2)NC(=O)[C@@H](Cc2ccccc2)NC(=O)[C@H](Cc2ccccc2)NC(=O)[C@@H](CCCN)NC1=O (cyclo(F[dF]F[dOrn][Orn][dOrn]))			IC50 [4]: 5.3 µg/mL (≈ 6.76 µM)
CC(C)[C@@H]1NC(=O)[C@@H](CCCNC(=N)N)NC(=O)[C@H]([C@@H](C)O)NC(=O)[C@@H](C)NC(=O)[C@H](Cc2ccccc2)NC(=O)[C@@H](Cc2ccccc2)NC1=O	11.9	< 10	
C[C@@H]1NC(=O)[C@@H](CCCNC(=N)N)NC(=O)[C@H]([C@@H](C)O)NC(=O)[C@@H](CCCN)NC(=O)[C@H](Cc2ccccc2)NC(=O)[C@@H](C)NC1=O	> 20		
CC(C)[C@@H]1NC(=O)[C@@H](CO)NC(=O)[C@H](CCCNC(=N)N)NC(=O)[C@@H](Cc2ccccc2)NC1=O			IC50 [5]: 6 µg/mL (≈ 12.3 µM)
CC(C)[C@@H]1NC(=O)[C@@H](CCCCN)NC(=O)[C@H]([C@@H](C)O)NC(=O)[C@@H](CCCCN)NC(=O)[C@H](Cc2ccccc2)NC(=O)[C@@H](Cc2ccccc2)NC1=O	3.9	< 10	
CC(C)[C@@H]1NC(=O)[C@@H](CCCNC(=N)N)NC(=O)[C@H]([C@@H](C)O)NC(=O)[C@@H](CCCCN)NC(=O)[C@H](Cc2ccccc2)NC(=O)[C@@H](Cc2ccccc2)NC1=O	4.1	< 10	
C=C(NC(=O)[C@@H](NC(=O)[C@H](Cc1c[nH]cn1)NC(=O)[C@@H](NC(=O)[C@H](CO)NC(=O)[C@@H]1CS[C@@H](C)[C@H]2NC(=O)C(=C)NC(=O)[C@H](NC(=O)[C@H](CCCCN)NC(=O)[C@H](CCSC)NC(=O)[C@H](CC(N)=O)NC(=O)[C@@H]3CS[C@@H](C)[C@@H](NC(=O)[C@H](CCCNN)NC(=O)[C@@H]4CS[C@@H](C)[C@@H](NC(=O)[C@@H]5CSC[C@@H](NC(=O)/C(=C\C)NC(=O)[C@@H](N)[C@@H](C)CC)C(=O)N[C@@H]([C@@H](C)CC)C(=O)NC(=C)C(=O)N[C@@H]([C@@H](C)CC)C(=O)N5)C(=O)N5CCC[C@H]5C(=O)NCC(=O)N4)C(=O)NCC(=O)N[C@@H](C)C(=O)N[C@@H]([C@@H](C)CC)C(=O)N[C@@H](CCSC)C(=O)NCC(=O)N3)[C@H](C)SC[C@H](NC2=O)C(=O)N[C@@H](Cc2c[nH]cn2)C(=O)N1)[C@@H](C)CC)C(C)C)C(=O)N[C@@H](CCCCN)C(=O)O			IC50 [6]: 4.5 µg/mL (≈ 1.34 µM)
CC(C)[C@@H]1NC(=O)[C@@H](CCCNC(=N)N)NC(=O)[C@H]([C@@H](C)O)NC(=O)[C@@H](CCCN)NC(=O)[C@H](Cc2ccccc2)NC(=O)[C@@H](Cc2ccccc2)NC1=O	5	< 10	IC50 [7]: 4 µg/mL (≈ 5.23 µM); IC50 [2]: > 100 µM; selectivity ratio at 72 h [8]: > 20
